# Where two headings read alike, the source gives them in different places. Positions of bridges follow the written chain, without caps; N, C: chain ends. No end group written: not given here.
# Key:
# experimental animals = settings: micromolar levels; cited from earlier work
# sickle red blood cells [1] = settings: cited from earlier work
# [2] = at appropriate levels in the blood stream; cited from earlier work
# [3] = Absorption and elimination of tritiated compound in rats (blood tritium after intraperitoneal injection); format: in vivo; settings: for Cmax: rat approx. 450 g, read-out: peak concentration in the blood
# Experimental: (§1) An animal study was then conducted to determine the absorption and elimination and characteristics of the phlorizin benzylazide and the resulting level of safety. Three adult rats of approximately 450 grams each were injected intraperitoneally at zero time in 1, 2 and 3 mg doses of tritiated phlorizin benzylazide (875,000 cpm/mg). Thereafter, serial tail blood samples were taken at varying times and analyzed for tritium. Maximal absorption of the compound from the peritoneal compartment was slow (note FIG. 5) and maximum blood level concentrations were obtained only after about 20 hours. The initial very rapid entry and elimination of a small fraction of the radioactivity was probably tritiated H2 O and other radioactive impurities. […] The absorption rate constant was estimated to be 0.07 hr^-1. […] This feature could, of course, offer advantages for therapy in a sickle cell crisis wherein long term effectiveness is desired.
# [4] = test system: normal human red blood cells; test: Initial photoaffinity-labeling experiments: effect on red blood cells before illumination; format: cell-based; settings: isotonic buffer; time and drug dose-dependent
# From the text: (§2) From the above, it is clear that a need exists for a safe, effective and clinically useful compound for the treatment of sickle cell anemia. […] After allowing the compound to associate with its specific membrane receptor, activation with light was expected to result in relatively specific, covalent, irreversible labeling of the transporter.
# [5] = Hemolysis of normal human red blood cells (turbidity at 610 nm); format: cell-based; settings: human, red blood cells, cells 2 hours old, 30 min incubation, approx. 4° C., within 700 sec, n=4
# Experimental: (§3) Human red blood cells were obtained by venepuncture into Na citrate or EDTA vacutainers. They were used directly or stored in serum at 4° C. for various times. Serum and leucocytes were removed by siphoning and the settled red blood cells were washed once and finally made to a 0.15% suspension with isotonic NaCl containing 5 mM KH2 PO4 (pH 6.2). These cells were kept at 2° C. for selected periods of time during a first incubation. From this point on, all experiments were performed in subdued light to protect the light-sensitive phlorizin benzylazide. The phlorizin benzylazide obtained from the synthesis described above was added at the desired concentrations, and during this variable temperature second incubation (2°-4° C. in presence of phlorizin benzylazide), the turbidity of the cell suspension was monitored at 610 nm with a continuously recording spectrophotometer to measure hemolysis. A relatively constant level of absorbance of light indicates decreased hemolysis occurring at the lower dosage and this was verified by concomitant counting of cells with a hemacytometer. Some typical data are shown in FIG. 1 showing the change in absorbance of light (note axis A) when the drug was added (at zero time).
# (§4) The dose-response curve of phlorizin benzylazide acting as a hemolytic agent of normal cells is shown in FIG. 3 and the following table:
# (§5) In FIG. 3, potency is expressed as the ratio, % hemolysis/t1/2, where t1/2 represents the time (seconds) required to achieve 50% of the total hemolysis produced by the particular concentration of the compound within the time of our measurements (700 sec). The cells used for these experiments were 2 hours old, and subjected to an incubation for 30 minutes before the addition of phlorizin benzylazide and continuing thereafter at approximately 4° C. (n=4). […] Thus, this blood level concentration provides anti-sickling action by reducing the concentration of hemoglobin S with an influx of water and/or salt into the cells. Further, this is accomplished with little or no red blood cell lysis and, therefore, minimum adverse side effects.
# [6] = test system: normal human red blood cells; test: as above; format: cell-based; settings: for t1/2 (time required to achieve 50% of the total hemolysis): approx. 4° C., n=4
# Experimental: as §3, §4, §5
# human red blood cells = test: Red cell swelling / mean cell volume (Coulter Counter); format: cell-based
# Experimental: as §3
# In these experiments (n=2) red cells had been stored in serum for 30 hours, and experienced a first incubation for 60 min at 4° C. and a second incubation with 12.5 μM phlorizin benzylazide at 4° C. for 5 and 10 min. […] The Coulter Counter, an automated instrument which determines the number and volume of cells passing through an analysis chamber, was used to make these measurements.
# sugar transporter = test: Interaction with the sugar (glucose) transporter of human red blood cells; format: biochemical
# From the text: as §2
# sickle red blood cells [7] = test: Inhibition of sickling induced by deoxygenation in vitro (whole blood of sickle cell disease patients, phase microscopy); format: cell-based, human; settings: 12.5 μM, 37° C.
# Experimental: Whole blood was obtained from several volunteer sickle cell disease patients and was stored for several days at 4° C. […] Instead, whole blood was diluted into pre-warmed (37° C.) isotonic phosphate-buffered saline (± phlorizin benzylazide, 12.5 μM) which was then deoxygenated by continuous passage of an 100% Argon stream (1 liter/min) over a rotating thin film of the suspended cells. Aliquots were periodically taken, without O2 exposure, and fixed in 1% glutaraldehyde. These samples were then examined under phase microscopy for the degree of sickling by counting fields of at least 100 cells using a single blind, experimental protocol.
# The data shown in FIG. 4 illustrate that without phlorizin benzylazide present, about 35-40% of the cells from these patients assumed the typical sickle shape (only cells having a 3:1, length:width ratio were considered to be sickled); whereas, with the phlorizin benzylazide, the deoxygenation caused a maximum increase of 5% more than the 10% of cells already sickled at zero time. Actually, the effect of phlorizin benzylazide is even more dramatic. […] The 10-15% sickled cells present at zero time are probably the so-called irreversibly sickled cells (ISC).
# [8] = Safety observation in rats (behavior, gross examination, histology); format: in vivo
# Experimental: as §1
# sickle patients = settings: low sodium diet; cited from earlier work
# [9] = 16 (head: κ M) phlorizin benzylazide
# [10] = 31 (head: κ M) phlorizin benzylazide
# [11] = 62 (head: κ M) phlorizin benzylazide
# [12] = 12.5 μM, 4° C., 5 and 10 min, n=2 (FIG. 2)
molecule,measurement,setting,value
CC[C@@]1([C@@H]2O[C@@H]([C@H]3O[C@@](O)(CO)[C@H](C)C[C@@H]3C)C[C@@H]2C)CC[C@H]([C@]2(C)CC[C@]3(C[C@H](O)[C@@H](C)[C@@H]([C@@H](C)[C@@H](OC)[C@H](C)C(=O)O)O3)O2)O1 [Monensin],toxicity,experimental animals,highly toxic
same,deformability of the red blood cell,sickle red blood cells [1],some improvemement in the deformability of the red blood cell
O=C(CCc1ccc(O)cc1)c1c(O)cc(O)cc1O [phloretin],toxic effects,[2],toxic effects at all sites in the body
[N-]=[N+]=Nc1ccc(Cc2c(O)cc(O[C@@H]3O[C@H](CO)[C@@H](O)[C@H](O)[C@H]3O)c(C(=O)CCc3ccc(O)cc3)c2O)cc1 [phlorizin benzylazide],Cmax,"[3]; intraperitoneal, 1 mg",2.5 µM
same,Cmax,"[3]; intraperitoneal, 2 mg",5.1 µM
same,Cmax,"[3]; intraperitoneal, 3 mg",6.3 µM
same,elimination process,"[3]; rat, intraperitoneal",first order process
same,mean half life (elimination),"[3]; rat, intraperitoneal",75 h
same,maximal absorption from the peritoneal compartment,"[3]; rat, intraperitoneal (FIG. 5)",slow
same,time of maximum blood level concentration,"[3]; rat, intraperitoneal, 1, 2 and 3 mg",about 20 hours
same,absorption rate constant,"[3]; rat, intraperitoneal, estimated",0.07 h⁻¹
same,effect on red blood cells before illumination,[4],"the red blood cells were found to swell and, in a time and drug dose-dependent manner, burst even in an isotonic buffer"
same,hemolysis at 4 µM,[5]; 4 (head: κ M) phlorizin benzylazide,0%
same,hemolysis at 8 µM,[5]; 8 (head: κ M) phlorizin benzylazide,0%
same,hemolysis at 16 µM,[5]; [9],31 ± 8.6%
same,hemolysis at 31 µM,[5]; [10],41 ± 9.6%
same,hemolysis at 62 µM,[5]; [11],66 ± 8%
same,t1/2 (time required to achieve 50% of the total hemolysis),[6]; [9],7.5 min
same,t1/2 (time required to achieve 50% of the total hemolysis),[6]; [10],4.33 min
same,t1/2 (time required to achieve 50% of the total hemolysis),[6]; [11],3.88 min
same,cell lysis,[6]; concentrations below 10 μM,no cell lysis was observed
same,"cell lysis, extent and rate (FIG. 1)","[6]; higher vs lower level of phlorizin benzylazide, 2°-4° C.",a greater percentage of cell lysis (an absorbance of 0.087 represents 100% lysis) but the rate at which the cells burst was much faster
same,lysis during swelling experiment,human red blood cells; [12],essentially no lysis
same,mean cell volume,human red blood cells; [12],a time dependent increase in mean cell volume
same,cell swelling,"human red blood cells; low phlorizin benzylazide levels, approx. 4° C.",cell swelling occurred
same,affinity for the sugar transporter,sugar transporter; subdued light,"high, but reversible"
same,inhibition of the transfer mechanism,sugar transporter; sugar transporter,potent inhibitor
same,cell shape on deoxygenation,sickle red blood cells [7]; 100% Argon,a uniform spherocytosis was induced in most cells
same,"maximum increase of sickled cells on deoxygenation, over the 10% already sickled at zero time","sickle red blood cells [7]; 100% Argon, without compound about 35-40% sickled (FIG. 4)",5%
same,hemolysis in the deoxygenation experiment,sickle red blood cells [7]; Example 2,no significant hemolysis
same,gross examination of all tissues,"[8]; rat, 1, 2 and 3 mg intraperitoneal",unremarkable
same,behavioral abnormalities,"[8]; rat, 1, 2 and 3 mg intraperitoneal, 5 days (lowest dosage) or 7 weeks",None of the animals exhibited any unusual behavioral abnormalities
same,histological examination of the liver and kidney,"[8]; rat, two older animals (7 weeks)",no pathology
"anti-diuretic hormone: anti-diuretic hormone given to sickle patients on a low sodium diet to reduce plasma Na+-osmolality (CYFQNCPRG-NH2; disulfide 1-6; UniProt P01185 20-28, looked up)",clinical success (reduction of plasma Na+ osmolality / cell hemoglobin S concentration),sickle patients,very limited success

# Reference: patent US4665058A, “Compositions and method of treatment for sickle cell anemia” (The University of Kentucky Research Foundation, priority 1985, dated 1987)
